In patent US8741911B2, “Raf inhibitor compounds” (Eli Lilly and Company, priority 2012, dated 2014):
Read-outs that look alike come from different tables or passages of the source.

Tests used:
Ba/F3 c-Kit K642E = test: Ba/F3 c-Kit anti-proliferation assay; type: cell-based; details: Mus musculus, BaF3, Ba/F3 c-Kit K642E, read-out: Anti-proliferation activities (IC50)
Method: (§1) To further evaluate the test compound, it is tested against c-Kit mutations commonly occurring in melanoma and/or GIST. Ba/F3 cell line (from ATCC) are transfected with wild type (WT) c-Kit, c-Kit L576P (Willmore-Payne et al, Human Pathology, 2005, 36(5), 486; Willmore-Payne et al, Human Pathology, 2006, 37, 520), c-Kit K642E (Willmore et al, Am J Clin Pathol, 2004, 122(2), 206; Monsel et al, Oncogene, 2010, 29, 227), c-Kit T670I (Tamborini et al, Oncogene, 2006, 25, 6140), or c-Kit V654A (Tamborini et al, Oncogene, 2006, 25, 6140), respectively are established by retroviral transfection methods well known and used by those skilled in the art. The mutations are generated by polymerase chain reaction (PCR) mutagenesis and confirmed by automated sequencing of the PCR-amplified c-Kit expression construct. Ba/F3 stable cell lines are generated by transfecting with plasmid DNA. Expression of the appropriate c-Kit mutants is confirmed by Western blot analysis.
(§2) Wild type Ba/F3 cells are generally dependent on IL-3 for growth. After c-Kit transfection, these cells are grown in Ba/F3 ATCC recommended growth medium in the presence of stem cell factor (SCF), the ligand of c-Kit. The anti-proliferation activities of test compounds against these cells are tested in the presence of IL-3 or SCF.

Ba/F3 c-Kit L576P = test: Ba/F3 c-Kit anti-proliferation assay; type: cell-based; details: Mus musculus, BaF3, Ba/F3 c-Kit L576P, read-out: Anti-proliferation activities (IC50)
Method: as §1, §2

Ba/F3 c-Kit T670I = test: Ba/F3 c-Kit anti-proliferation assay; type: cell-based; details: Mus musculus, BaF3, Ba/F3 c-Kit T670I, read-out: Anti-proliferation activities (IC50)
Method: as §1, §2

Ba/F3 c-Kit V654A = test: Ba/F3 c-Kit anti-proliferation assay; type: cell-based; details: Mus musculus, BaF3, Ba/F3 c-Kit V654A, read-out: Anti-proliferation activities (IC50)
Method: as §1, §2

Ba/F3 c-Kit WT = test: Ba/F3 c-Kit anti-proliferation assay; type: cell-based; details: Mus musculus, BaF3, Ba/F3 c-Kit WT, read-out: Anti-proliferation activities (IC50)
Method: as §1, §2

B-Raf (V600E) = B-Raf (V600E) (Homo sapiens, UniProt P15056, V600E); test: ActivX KiNativ A375 whole cell lysate assay; type: binding
B-Raf (V600E), sequence (P15056 whole entry V600E): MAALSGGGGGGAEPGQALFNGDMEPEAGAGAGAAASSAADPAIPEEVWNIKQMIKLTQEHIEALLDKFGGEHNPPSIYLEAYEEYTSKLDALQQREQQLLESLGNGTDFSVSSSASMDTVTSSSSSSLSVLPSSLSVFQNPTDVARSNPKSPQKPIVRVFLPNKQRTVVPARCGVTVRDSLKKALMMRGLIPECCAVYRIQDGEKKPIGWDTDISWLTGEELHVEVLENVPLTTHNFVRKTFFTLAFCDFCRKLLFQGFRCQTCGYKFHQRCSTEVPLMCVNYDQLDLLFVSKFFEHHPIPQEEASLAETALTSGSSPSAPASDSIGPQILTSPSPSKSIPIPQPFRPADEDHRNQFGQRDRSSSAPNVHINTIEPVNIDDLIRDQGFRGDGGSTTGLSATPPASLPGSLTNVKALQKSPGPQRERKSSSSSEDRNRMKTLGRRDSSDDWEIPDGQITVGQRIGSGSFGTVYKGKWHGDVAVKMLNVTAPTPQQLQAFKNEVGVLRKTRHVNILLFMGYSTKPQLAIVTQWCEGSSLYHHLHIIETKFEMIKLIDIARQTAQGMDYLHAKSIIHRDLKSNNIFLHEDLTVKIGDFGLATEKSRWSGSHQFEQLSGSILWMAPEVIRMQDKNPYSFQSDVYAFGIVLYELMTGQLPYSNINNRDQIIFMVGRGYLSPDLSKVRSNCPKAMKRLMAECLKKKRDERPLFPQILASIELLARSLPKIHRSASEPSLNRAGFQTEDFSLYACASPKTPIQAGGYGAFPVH

SK-Mel-5 = test: CellTiter-Glo proliferation and viability assay; type: cell-based; details: Homo sapiens
HuH-7 = test: CellTiter-Glo proliferation and viability assay; type: cell-based; details: Homo sapiens, read-out: Rel IC50
SW900 = test: CellTiter-Glo proliferation and viability assay; type: cell-based; details: Homo sapiens
TALL-1 = test: CellTiter-Glo proliferation and viability assay; type: cell-based; details: Homo sapiens, read-out: Abs IC50
NCI-H1975 = test: CellTiter-Glo proliferation and viability assay; type: cell-based; details: Homo sapiens
HT-1080 = test: CellTiter-Glo proliferation and viability assay; type: cell-based; details: Homo sapiens
MV-4-11 = test: CellTiter-Glo proliferation and viability assay; type: cell-based; details: Homo sapiens
C8166 = test: CellTiter-Glo proliferation and viability assay; type: cell-based; details: Homo sapiens
U-266 = test: CellTiter-Glo proliferation and viability assay; type: cell-based; details: Homo sapiens, read-out: Abs IC50
NCI-H2052 = test: CellTiter-Glo proliferation and viability assay; type: cell-based; details: Homo sapiens
NOMO-1 = test: CellTiter-Glo proliferation and viability assay; type: cell-based; details: Homo sapiens, read-out: Abs IC50
Caki-1 = test: CellTiter-Glo proliferation and viability assay; type: cell-based; details: Homo sapiens
MKN45 = test: CellTiter-Glo proliferation and viability assay; type: cell-based; details: Homo sapiens
NCI-H838 = test: CellTiter-Glo proliferation and viability assay; type: cell-based; details: Homo sapiens
HEL = test: CellTiter-Glo proliferation and viability assay; type: cell-based; details: Homo sapiens, read-out: Abs IC50
LN 18 = test: CellTiter-Glo proliferation and viability assay; type: cell-based; details: Homo sapiens
NCI-H2228 = test: CellTiter-Glo proliferation and viability assay; type: cell-based; details: Homo sapiens
[1] = system: phospho-MEK and phospho-ERK in SK-MeI-2 cells; test: Immunoblotting (Western Blot) analysis of phospho-MEK and phospho-ERK; type: cell-based, human; details: SK-MeI-2, Western Blot
Method: N-Ras mutations B-Raf wild type leads to MAPK activation through Raf proteins, particularly C-Raf.
Testing is carried out at doses of 0, and 11 serial dilutions ranging from 0.17 to 10000 nM. Protein lysates are generated by treatment of the cells with RIPA lysis buffer from Millipore. Western blotting analysis is performed substantially as described in Yadav et al, Molecular Carcinogenesis, 2011, 50: 346-52. Briefly, SDS-PAGE is performed on cell lysates containing 20 ug of total protein using 4-20% Novex® tri-glycine gradient gels (Invitrogen). Protein is transferred onto […] nitrocellulose membranes using NuPAGE® Transfer Buffer (Invitrogen) and 10% methanol at 100 V, 4° C. for 1 hr. Generally, the primary antibody is used at 1:1000 dilution, and secondary antibody at 1:20000 dilution. Proteins are detected using the Odyssey Infrared Imaging System (Li-COR Biosciences). Antibodies against ERK1/2, phospho-ERK1/2, phospho-MEK1/2, and actin are obtained from Cell Signaling Technology.

IC50 (Ba/F3 c-Kit K642E; IL-3): 1200 nM
IC50 (Ba/F3 c-Kit K642E; SCF): 47 nM
IC50 (Ba/F3 c-Kit L576P; IL-3): 2080 nM
IC50 (Ba/F3 c-Kit L576P; SCF): 179 nM
IC50 (Ba/F3 c-Kit T670I; IL-3): 5.92 µM
IC50 (Ba/F3 c-Kit T670I; SCF): 0.29 µM
IC50 (Ba/F3 c-Kit V654A; IL-3): 2940 nM
IC50 (Ba/F3 c-Kit V654A; SCF): 86 nM
IC50 (Ba/F3 c-Kit WT; IL-3): 2860 nM
IC50 (Ba/F3 c-Kit WT; SCF): 62 nM
inhibition at 0.1 µM (B-Raf (V600E); 100 nM): 82.9%
% inhibition (B-Raf (V600E); 100 nM, 0.1 µM): 82%
inhibition at 1 µM (B-Raf (V600E); 1000 nM): 96.5%
% inhibition (B-Raf (V600E); 1000 nM, 1 µM): >98%
IC50 (SK-Mel-5; read-out: Abs IC50): 0.13 nM
IC50 (SK-Mel-5; read-out: Rel IC50): 0.06 nM
IC50 (HuH-7): 0.13 nM
IC50 (SW900; read-out: Abs IC50): 0.69 nM
IC50 (SW900; read-out: Rel IC50): 0.23 nM
IC50 (NCI-H1975; read-out: Abs IC50): 0.93 nM
IC50 (NCI-H1975; read-out: Rel IC50): 0.69 nM
IC50 (HT-1080; read-out: Abs IC50): 0.98 nM
IC50 (HT-1080; read-out: Rel IC50): 0.5 nM
IC50 (MV-4-11; MV4-11, read-out: Abs IC50): 0.98 nM
IC50 (MV-4-11; MV4-11, read-out: Rel IC50): 1.87 nM
IC50 (NCI-H2052; read-out: Abs IC50): 1.27 nM
IC50 (NCI-H2052; read-out: Rel IC50): 0.33 nM
IC50 (MKN45; MKN-45, read-out: Abs IC50): 5.72 nM
IC50 (MKN45; MKN-45, read-out: Rel IC50): 0.87 nM
IC50 (NCI-H838; read-out: Abs IC50): 13.4 nM
IC50 (NCI-H838; read-out: Rel IC50): 6.97 nM
IC50 (NCI-H2228; read-out: Abs IC50): > 20 nM
IC50 (NCI-H2228; read-out: Rel IC50): 1.18 nM
SMILES: CNc1ncc2cc(-c3cc(NC(=O)NCCC(C)(C)C)c(F)cc3C)c(C)nc2n1 [Example 1, 1-(3,3-Dimethylbutyl)-3-(2-fluoro-4-methyl-5-(7-methyl-2-(methylamino)pyrido[2,3-d]pyrimidin-6-yl)phenyl)urea]
IC50 (TALL-1): 0.75 nM
IC50 (C8166; read-out: Abs IC50): 1.09 nM
IC50 (C8166; read-out: Rel IC50): 0.56 nM
IC50 (U-266): 1.1 nM
IC50 (NOMO-1): 2.63 nM
IC50 (Caki-1; read-out: Abs IC50): 2.91 nM
IC50 (Caki-1; read-out: Rel IC50): 2.03 nM
IC50 (HEL): > 20 nM
IC50 (LN 18; read-out: Abs IC50): > 20 nM
IC50 (LN 18; read-out: Rel IC50): > 20 nM
dose at which phospho-ERK activity is substantially eliminated [1]: 370 nM
phospho-MEK and phospho-ERK inhibition ([1]; 0.17 to 10000 nM): dose dependent phospho-MEK and phospho-ERK inhibition
